Experiment [1] deals with human multiple myeloma cell line, OPM-2. The experiment in a line: Cell viability assay (OPM-2 10 FBS), CellTiter-Glo. The experiment is classed as cell-based. A digest of the protocol: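 OPM-2 cells at 3000 cells/well in RPMI 1640 with 10% FBS were exposed to serially diluted compounds for 16 h at 37 °C, 5% CO2.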
The target of experiment [2] is recombinant human Mcl-1 (residues 171-327) / Bim interaction (Homo sapiens (Human), UniProt Q07820). The experiment in a line: biochemical. Format: binding. Particulars: read-out: Mcl-1 HTRF IC50.
The mark [3] stands for this setting: Homo sapiens, OPM-2, 16 h, read-out: OPM-2 10% FBS IC50 IP, OPM-2 cells, 10% FBS, 16 h, CellTiter-Glo.
Where [4] appears, read: TR-FRET, Mcl-1(171-327) / biotin-Bim (51-76).
The mark [5] stands for this setting: Homo sapiens, OPM-2, 16 h, read-out: OPM-2 10% FBS IC50 IP, OPM-2 cells, 10% FBS, 16 h incubation.
The mark [6] stands for this setting: 0.1 nM Mcl-1(171-327), 0.05 nM biotin-Bim (51-76).
The mark [7] stands for this setting: read-out: OPM-2 10% FBS IC50 IP, OPM-2 cells, 10% FBS, 16 h, CellTiter-Glo.

Where two headings read alike, the source gives them in different places.

For orientation: IC50 means the midpoint of a concentration-inhibition curve.

Sequence of recombinant human Mcl-1 (residues 171-327) / Bim interaction (Q07820 171-327): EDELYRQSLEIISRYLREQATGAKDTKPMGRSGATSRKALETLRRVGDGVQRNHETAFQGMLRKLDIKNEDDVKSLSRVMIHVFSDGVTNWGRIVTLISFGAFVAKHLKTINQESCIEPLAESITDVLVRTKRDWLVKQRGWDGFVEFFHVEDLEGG

Consider `CO[C@@]1(CC(=O)On2nnc3cccnc32)/C=C/C[C@H](C)[C@@H](C)S(=O)(=O)NC(=O)c2ccc3c(c2)N(C[C@@H]2CC[C@H]21)C[C@@]1(CCCc2cc(Cl)ccc21)CO3` [Example 100576, (1S,3′R,6′R,7′S,8′E,11′S,12′R)-6-chloro-7′-methoxy-11′,12′-dimethyl-7′-(2-oxo-2-(3H-[1,2,3]triazolo[4,5-b]pyridin-3-yloxy)ethyl)-3,4-dihydro-2H,15′H-spiro[naphthalene-1,22′-[20]oxa[13]thia[1,14]diazatetracyclo [14.7.2.0~3,6~.0~19,24~]pentacosa[8,16,18,24]tetraen]-15′-one 13′,13′-dioxide], for which the values for the IC50 in experiment [1] (setting [3]) and in experiment [2] (setting [4]) were 4090 nM and 1.15 nM, respectively.

Consider `CC[C@@H]1CCCC[C@](CO)(OC)[C@@H]2CC[C@H]2CN2C[C@@]3(CCCc4cc(Cl)ccc43)COc3ccc(cc32)C(=O)NS1(=O)=O` [Example 100041, (1S,3′R,6′R,7′S,12′R)-6-chloro-12′-ethyl-7′-(hydroxymethyl)-7′-methoxy-3,4-dihydro-2H,15′H-spiro[naphthalene-1,22′-[20]oxa[13]thia[1,14]diazatetracyclo [14.7.2.0~3,6~.0~19,24~]pentacosa[16,18,24]trien]-15′-one 13′,13′-dioxide], for which the IC50 in experiment [1] (setting [3]) stood at 4990 nM; in experiment [2] (setting [4]) it was 3.36 nM.

Turning to `CO[C@@]1(Cc2nccs2)/C=C/C[C@H](C)[C@@H](C)S(=O)(=O)NC(=O)c2ccc3c(c2)N(C[C@@H]2CC[C@H]21)C[C@@]1(CCCc2cc(Cl)ccc21)CO3` [Example 100525, (1S,3′R,6′R,7′S,8′E,11′S,12′R)-6-chloro-7′-methoxy-11′,12′-dimethyl-7′-(1,3-thiazol-2-ylmethyl)-3,4-dihydro-2H,15′H-spiro[naphthalene-1,22′-[20]oxa[13]thia[1,14]diazatetracyclo [14.7.2.0~3,6~.0~19,24~]pentacosa[8,16,18,24]tetraen]-15′-one 13′,13′-dioxide], the IC50 was 1430 nM in experiment [1] (setting [3]) and 3.31 nM in experiment [2] (setting [4]).

With `COCC[C@@H]1[C@@H](C)C/C=C/[C@](CN2CCN3CCCC[C@@H]3C2)(OC)[C@@H]2CC[C@H]2CN2C[C@@]3(CCCc4cc(Cl)ccc43)COc3ccc(cc32)C(=O)NS1(=O)=O` [Example 182, (1S,3′R,6′R,7′S,8′E,11′S,12′R)-6-chloro-7′-methoxy-12′-(2-methoxyethyl)-11′-methyl-7′-((9aR)-octahydro-2H-pyrido[1,2-a]pyrazin-2-ylmethyl)-3,4-dihydro-2H,15′H-spiro[naphthalene-1,22′-[20]oxa[13]thia[1,14]diazatetracyclo [14.7.2.0~3,6~.0~19,24~]pentacosa[8,16,18,24]tetraen]-15′-one 13′,13′-dioxide], the results for the IC50 in experiment [1] (setting [5]) and in experiment [2] (setting [6]) were 88 nM and 0.171 nM, respectively.

`CO[C@]1(CN2CCCN(C(C)C)CC2)/C=C/C[C@H](C)[C@@H](C)S(=O)(=O)NC(=O)c2ccc3c(c2)N(C[C@@H]2CC[C@H]21)C[C@@]1(CCCc2cc(Cl)ccc21)CO3` [Example 327, (1S,3′R,6′R,7′R,8′E,11′S,12′R)-6-chloro-7′-methoxy-11′,12′-dimethyl-7′-((4-(1-methylethyl)-1,4-diazepan-1-yl)methyl)-3,4-dihydro-2H,15′H-spiro[naphthalene-1,22′-[20]oxa[13]thia[1,14]diazatetracyclo [14.7.2.0~3,6~.0~19,24~]pentacosa[8,16,18,24]tetraen]-15′-one 13′,13′-dioxide]: the IC50 in experiment [1] (setting [5]) worked out at 174 nM; in experiment [2] (setting [6]), 0.214 nM.

Regarding `CO[C@]1(C#CCN2CCOCC2)/C=C/C[C@H](C)[C@@H](C)S(=O)(=O)NC(=O)c2ccc3c(c2)N(C[C@@H]2CC[C@H]21)C[C@@]1(CCCc2cc(Cl)ccc21)CO3` [Example 100448, (1S,3′R,6′R,7′R,8′E,11′S,12′R)-6-chloro-7′-methoxy-11′,12′-dimethyl-7′-(3-(4-morpholinyl)-1-propyn-1-yl)-3,4-dihydro-2H,15′H-spiro[naphthalene-1,22′-[20]oxa[13]thia[1,14]diazatetracyclo [14.7.2.0~3,6~.0~19,24~]pentacosa[8,16,18,24]tetraen]-15′-one 13′,13′-dioxide], the IC50 came out at 1920 nM in experiment [1] (setting [7]) and 0.373 nM in experiment [2] (setting [4]).

With `C[C@@H]1[C@@H](C)CCC[C@@](O)(CS(=O)(=O)N2CCN(C)CC2)[C@@H]2CC[C@H]2CN2C[C@@]3(CCCc4cc(Cl)ccc43)COc3ccc(cc32)C(=O)NS1(=O)=O` [Example 100139, (1S,3′R,6′R,7′S,11′S,12′R)-6-chloro-7′-hydroxy-11′,12′-dimethyl-7′-(((4-methyl-1-piperazinyl)sulfonyl)methyl)-3,4-dihydro-2H,15′H-spiro[naphthalene-1,22′-[20]oxa[13]thia[1,14]diazatetracyclo [14.7.2.0~3,6~.0~19,24~]pentacosa[16,18,24]trien]-15′-one 13′,13′-dioxide], the IC50 is 974 nM in experiment [1] (setting [7]) and 2.58 nM in experiment [2] (setting [4]).

For `CO[C@@]1(C(F)F)/C=C/C[C@H](C)[C@@H](C)S(=O)(=O)NC(=O)c2ccc3c(c2)N(C[C@@H]2CC[C@H]21)C[C@@]1(CCCc2cc(Cl)ccc21)CO3` [Example 100071, (1S,3′R,6′R,7′S,8′E,11′S,12′R)-6-chloro-7′-(difluoromethyl)-7′-methoxy-11′,12′-dimethyl-3,4-dihydro-2H,15′H-spiro[naphthalene-1,22′-[20]oxa[13]thia[1,14]diazatetracyclo [14.7.2.0~3,6~.0~19,24~]pentacosa[8,16,18,24]tetraen]-15′-one 13′,13′-dioxide], the IC50 in experiment [1] (setting [3]) was 588 nM; in experiment [2] (setting [4]), 1.54 nM.

As to `C[C@@H]1[C@@H](C)C/C=C/[C@](O)(c2cccc(F)n2)[C@@H]2CC[C@H]2CN2C[C@@]3(CCCc4cc(Cl)ccc43)COc3ccc(cc32)C(=O)NS1(=O)=O` [Example 100331, (1S,3′R,6′R,7′R,8′E,11′S,12′R)-6-chloro-7′-(6-fluoro-2-pyridinyl)-7′-hydroxy-11′,12′-dimethyl-3,4-dihydro-2H,15′H-spiro[naphthalene-1,22′-[20]oxa[13]thia[1,14]diazatetracyclo [14.7.2.0~3,6~.0~19,24~]pentacosa[8,16,18,24]tetraen]-15′-one 13′,13′-dioxide], the results for the IC50 in experiment [1] (setting [3]) and in experiment [2] (setting [4]) were 8260 nM and 0.192 nM, respectively.

As to `CC[C@@H]1CCCC[C@](O)(CO)[C@@H]2CC[C@H]2CN2C[C@@]3(CCCc4cc(Cl)ccc43)COc3ccc(cc32)C(=O)NS1(=O)=O` [Example 100036, (1S,3′R,6′R,7′R,12′R)-6-chloro-12′-ethyl-7′-hydroxy-7′-(hydroxymethyl)-3,4-dihydro-2H,15′H-spiro[naphthalene-1,22′-[20]oxa[13]thia[1,14]diazatetracyclo [14.7.2.0~3,6~.0~19,24~]pentacosa[16,18,24]trien]-15′-one 13′,13′-dioxide], the values for the IC50 in experiment [1] (setting [3]) and in experiment [2] (setting [4]) were 1980 nM and 0.889 nM, respectively.

Take `CCCO[C@]1(CN2CCN(C(C)C)[C@H](C)C2)/C=C/C[C@H](C)[C@@H](C)S(=O)(=O)NC(=O)c2ccc3c(c2)N(C[C@@H]2CC[C@H]21)C[C@@]1(CCCc2cc(Cl)ccc21)CO3` [Example 368, (1S,3′R,6′R,7′R,8′E,11′S,12′R)-6-chloro-11′,12′-dimethyl-7′-(((3R)-3-methyl-4-(2-propanyl)-1-piperazinyl)methyl)-7′-propoxy-3,4-dihydro-2H,15′H-spiro[naphthalene-1,22′-[20]oxa[13]thia[1,14]diazatetracyclo [14.7.2.0~3,6~.0~19,24~]pentacosa[8,16,18,24]tetraen]-15′-one 13′,13′-dioxide]: the IC50 was 68 nM in experiment [1] (setting [5]) and 0.069 nM in experiment [2] (setting [6]).

Take `COCCOCCN1CCN(C[C@]2(OC)/C=C/C[C@H](C)[C@@H](C)S(=O)(=O)NC(=O)c3ccc4c(c3)N(C[C@@H]3CC[C@H]32)C[C@@]2(CCCc3cc(Cl)ccc32)CO4)CC1` [Example 332, (1S,3′R,6′R,7′S,8′E,11′S,12′R)-6-chloro-7′-methoxy-7′-((4-(2-(2-methoxyethoxy)ethyl)-1-piperazinyl)methyl)-11′,12′-dimethyl-3,4-dihydro-2H,15′H-spiro[naphthalene-1,22′-[20]oxa[13]thia[1,14]diazatetracyclo [14.7.2.0~3,6~.0~19,24~]pentacosa[8,16,18,24]tetraen]-15′-one 13′,13′-dioxide]: the IC50 in experiment [1] (setting [5]) was determined as 89 nM; in experiment [2] (setting [6]) it was 0.096 nM.

Take `CO[C@@]1(CN2CC(C)(N(C)C)C2)/C=C/[C@H](C)[C@H](C)CS(=O)(=O)NC(=O)c2ccc3c(c2)N(C[C@@H]2CC[C@H]21)C[C@@]1(CCCc2cc(Cl)ccc21)CO3` [Example 162, (1S,3′R,6′R,7′S,8′E,10′S,11′S)-6-chloro-7′-((3-(dimethylamino)-3-methyl-1-azetidinyl)methyl)-7′-methoxy-10′,11′-dimethyl-3,4-dihydro-2H,15′H-spiro[naphthalene-1,22′-[20]oxa[13]thia[1,14]diazatetracyclo [14.7.2.0~3,6~.0~19,24~]pentacosa[8,16,18,24]tetraen]-15′-one 13′,13′-dioxide]: the IC50 in experiment [1] (setting [5]) was 55 nM; in experiment [2] (setting [6]), 0.072 nM.

Turning to `COCC(C)(C)N1CCN(C[C@]2(OC)/C=C/C[C@H](C)[C@@H](C)S(=O)(=O)NC(=O)c3ccc4c(c3)N(C[C@@H]3CC[C@H]32)C[C@@]2(CCCc3cc(Cl)ccc32)CO4)CC1` [Example 297, (1S,3′R,6′R,7′S,8′E,11′S,12′R)-6-chloro-7′-methoxy-7′-((4-(2-methoxy-1,1-dimethylethyl)-1-piperazinyl)methyl)-11′,12′-dimethyl-3,4-dihydro-2H,15′H-spiro[naphthalene-1,22′-[20]oxa[13]thia[1,14]diazatetracyclo [14.7.2.0~3,6~.0~19,24~]pentacosa[8,16,18,24]tetraen]-15′-one 13′,13′-dioxide], the IC50 in experiment [1] (setting [5]) came to 66 nM; in experiment [2] (setting [6]) it was 0.128 nM.

The record behind these values is patent publication US10821115B2, “Compounds that inhibit Mcl-1 protein” (priority 2017, dated 2020).
